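Grown in 96-well plates, cells were treated for 48 hours with each compound at five concentrations. Insufficient inhibition: endpoint recorded as highest concentration tested. GI50 = concentration required for 50% inhibition of growth.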 Calls of active or inactive are those of the source. No stated cut-off is given here; in the data, active = GI50 up to about 1.1 µM and inactive = higher. Where a SMILES comes first, the peptide text is derived from it. The star is where a group is joined. Boc = CC(C)(C)OC(=O)*; OSu = O=C1CCC(=O)N1O*
Columns and labels:
Experiment in all cases: NCI-60 cell line screen, 48 h
U-251 = test system: U-251
SK-MEL-2 = test system: SK-MEL-2
HL-60 = test system: HL-60
NCI-H23 = test system: NCI-H23
IGROV-1 = test system: IGROV-1
RPMI-8226 = test system: RPMI-8226
RXF 393 = test system: RXF 393
ACHN = test system: ACHN
UACC-62 = test system: UACC-62
OVCAR-5 = test system: OVCAR-5
DU-145 = test system: DU-145
TK-10 = test system: TK-10
SW-620 = test system: SW-620
CAKI-1 = test system: CAKI-1
K562 = test system: K562
NCI-H226 = test system: NCI-H226
MDA-MB-435 = test system: MDA-MB-435
T47D = test system: T47D
NCI/ADR-RES = test system: NCI/ADR-RES
SK-OV-3 = test system: SK-OV-3
M14 = test system: M14
MCF7 = test system: MCF7
A549 = test system: A549
SN12C = test system: SN12C
786-0 = test system: 786-0
HCT-116 = test system: HCT-116
SR = test system: SR
HOP-92 = test system: HOP-92
SK-MEL-5 = test system: SK-MEL-5
MOLT-4 = test system: MOLT-4
BT-549 = test system: BT-549
MDA-N = test system: MDA-N
HT-29 = test system: HT-29
SNB-19 = test system: SNB-19
Malme-3M = test system: Malme-3M
NCI-H460 = test system: NCI-H460
UO-31 = test system: UO-31
PC-3 = test system: PC-3
SF-295 = test system: SF-295
HCT-15 = test system: HCT-15
Hs-578T = test system: Hs-578T
MDA-MB-231 = test system: MDA-MB-231
SNB-75 = test system: SNB-75
SF-539 = test system: SF-539
UACC-257 = test system: UACC-257
SF-268 = test system: SF-268
KM12 = test system: KM12
EKVX = test system: EKVX
NCI-H522 = test system: NCI-H522
OVCAR-8 = test system: OVCAR-8
COLO 205 = test system: COLO 205
HOP-62 = test system: HOP-62
OVCAR-3 = test system: OVCAR-3
SK-MEL-28 = test system: SK-MEL-28
HCC 2998 = test system: HCC 2998

For `CCCC(CCC(=O)O)(CCC(=O)O)[N+](=O)[O-]`, which GI50 (U-251) is on record?
Its GI50 is > 100 µM (inactive).

And the GI50 (SK-MEL-2)?
The GI50 was > 100 µM (inactive).

And the GI50 (HL-60)?
The GI50 was > 100 µM (inactive).

And the GI50 (NCI-H23)?
Its GI50 is > 100 µM (inactive).

And the GI50 (IGROV-1)?
Its GI50 is > 100 µM (inactive).

What about the GI50 (RPMI-8226) of the same molecule?
Its GI50 is > 100 µM (inactive).

What about the GI50 (RXF 393) of the same molecule?
The GI50 was > 100 µM (inactive).

What about the GI50 (ACHN) of the same molecule?
The GI50 was > 100 µM (inactive).

And the GI50 (UACC-62)?
Its GI50 is > 100 µM (inactive).

And the GI50 (OVCAR-5)?
Its GI50 is > 100 µM (inactive).

And the GI50 (DU-145)?
The GI50 was > 100 µM (inactive).

And the GI50 (TK-10)?
Its GI50 is > 100 µM (inactive).

What about the GI50 (SW-620) of the same molecule?
The GI50 was > 100 µM (inactive).

What about the GI50 (CAKI-1) of the same molecule?
The GI50 was > 100 µM (inactive).

And the GI50 (K562)?
Its GI50 is > 100 µM (inactive).

And the GI50 (NCI-H226)?
The GI50 was > 100 µM (inactive).

And the GI50 (MDA-MB-435)?
Its GI50 is > 100 µM (inactive).

What about the GI50 (T47D) of the same molecule?
Its GI50 is > 100 µM (inactive).

And the GI50 (NCI/ADR-RES)?
Its GI50 is > 100 µM (inactive).

What about the GI50 (SK-OV-3) of the same molecule?
Its GI50 is > 100 µM (inactive).

What about the GI50 (M14) of the same molecule?
Its GI50 is > 100 µM (inactive).

And the GI50 (MCF7)?
The GI50 was > 100 µM (inactive).

What about the GI50 (A549) of the same molecule?
The GI50 was > 100 µM (inactive).

And the GI50 (SN12C)?
The GI50 was > 100 µM (inactive).

And the GI50 (786-0)?
Its GI50 is > 100 µM (inactive).

And the GI50 (HCT-116)?
Its GI50 is > 100 µM (inactive).

What about the GI50 (SR) of the same molecule?
Its GI50 is > 100 µM (inactive).

What about the GI50 (HOP-92) of the same molecule?
The GI50 was > 100 µM (inactive).

And the GI50 (SK-MEL-5)?
The GI50 was > 100 µM (inactive).

And the GI50 (MOLT-4)?
The GI50 was > 100 µM (inactive).

What about the GI50 (BT-549) of the same molecule?
The GI50 was > 100 µM (inactive).

What about the GI50 (MDA-N) of the same molecule?
The GI50 was > 100 µM (inactive).

What about the GI50 (HT-29) of the same molecule?
The GI50 was > 100 µM (inactive).

And the GI50 (SNB-19)?
The GI50 was > 100 µM (inactive).

What about the GI50 (Malme-3M) of the same molecule?
The GI50 was > 100 µM (inactive).

What about the GI50 (NCI-H460) of the same molecule?
Its GI50 is > 100 µM (inactive).

And the GI50 (UO-31)?
The GI50 was > 100 µM (inactive).

And the GI50 (PC-3)?
The GI50 was > 100 µM (inactive).

And the GI50 (SF-295)?
The GI50 was > 100 µM (inactive).

What about the GI50 (HCT-15) of the same molecule?
The GI50 was over 100 µM.

What about the GI50 (Hs-578T) of the same molecule?
Its GI50 is > 100 µM (inactive).

And the GI50 (MDA-MB-231)?
The GI50 was > 100 µM (inactive).

And the GI50 (SNB-75)?
The GI50 was > 100 µM (inactive).

And the GI50 (SF-539)?
The GI50 was > 100 µM (inactive).

What about the GI50 (UACC-257) of the same molecule?
Its GI50 is > 100 µM (inactive).

What about the GI50 (SF-268) of the same molecule?
Its GI50 is > 100 µM (inactive).

And the GI50 (KM12)?
The GI50 was > 100 µM (inactive).

And the GI50 (EKVX)?
The GI50 was > 100 µM (inactive).

And the GI50 (NCI-H522)?
Its GI50 is > 100 µM (inactive).

And the GI50 (OVCAR-8)?
The GI50 was > 100 µM (inactive).

And the GI50 (COLO 205)?
Its GI50 is > 100 µM (inactive).

Which results are given for `CC(NC(=O)C(NC(=O)OC(C)(C)C)C(C)C)C(=O)NCC(=O)ON1C(=O)CCC1=O` (stereo not drawn) (Boc-Val-Ala-Gly-OSu; configuration not given here)?
GI50 (U-251): > 100 µM (inactive); GI50 (SK-MEL-2): > 100 µM (inactive); GI50 (NCI-H23): > 100 µM (inactive); GI50 (IGROV-1): > 100 µM (inactive); GI50 (RPMI-8226): > 100 µM (inactive); GI50 (RXF 393): > 100 µM (inactive); GI50 (ACHN): > 100 µM (inactive); GI50 (UACC-62): > 100 µM (inactive); GI50 (HOP-62): > 100 µM (inactive); GI50 (OVCAR-5): > 100 µM (inactive); GI50 (DU-145): > 100 µM (inactive); GI50 (TK-10): > 100 µM (inactive); GI50 (SW-620): > 100 µM (inactive); GI50 (CAKI-1): > 100 µM (inactive); GI50 (K562): > 100 µM (inactive); GI50 (NCI-H226): > 100 µM (inactive); GI50 (MDA-MB-435): > 100 µM (inactive); GI50 (T47D): > 100 µM (inactive); GI50 (NCI/ADR-RES): > 100 µM (inactive); GI50 (OVCAR-3): > 100 µM (inactive); GI50 (SK-OV-3): > 100 µM (inactive); GI50 (M14): 88.1 µM (inactive); GI50 (MCF7): > 100 µM (inactive); GI50 (A549): > 100 µM (inactive); GI50 (SN12C): > 100 µM (inactive); GI50 (786-0): > 100 µM (inactive); GI50 (HCT-116): > 100 µM (inactive); GI50 (SR): > 100 µM (inactive); GI50 (HOP-92): 22.8 µM (inactive); GI50 (SK-MEL-5): > 100 µM (inactive); GI50 (MOLT-4): 45.9 µM (inactive); GI50 (BT-549): > 100 µM (inactive); GI50 (MDA-N): > 100 µM (inactive); GI50 (HT-29): > 100 µM (inactive); GI50 (SNB-19): > 100 µM (inactive); GI50 (Malme-3M): > 100 µM (inactive); GI50 (NCI-H460): > 100 µM (inactive); GI50 (UO-31): > 100 µM (inactive); GI50 (PC-3): > 100 µM (inactive); GI50 (SF-295): > 100 µM (inactive); GI50 (HCT-15): > 100 µM; GI50 (Hs-578T): > 10 µM (inactive); GI50 (MDA-MB-231): > 100 µM (inactive); GI50 (SNB-75): > 100 µM (inactive); GI50 (SF-539): > 100 µM (inactive); GI50 (UACC-257): > 100 µM (inactive); GI50 (SF-268): > 100 µM (inactive); GI50 (KM12): > 100 µM (inactive); GI50 (EKVX): > 100 µM (inactive); GI50 (NCI-H522): 63.4 µM (inactive); GI50 (SK-MEL-28): > 100 µM (inactive); GI50 (OVCAR-8): > 100 µM (inactive); GI50 (HCC 2998): > 100 µM (inactive); GI50 (COLO 205): > 100 µM (inactive)

From ChEMBL document CHEMBL1201862, “PubChem BioAssay data set” (2004)
